The values below come from PMC5218480 (PLoS ONE, 2017).

For the assay, the system named is MV-4-11 cells. In words: Gene expression microarray analysis (Affymetrix PrimeView) and GSEA. It counts as cell-based, human. On the set-up: RFU PODN (11730768_x_at) / Fold change /veh PODN (11730768_x_at) / RFU LINC00158 (11744669_a_at) / Fold change /veh LINC00158 (11744669_a_at) / RFU DUSP10 (11751237_a_at) / Fold change /veh DUSP10 (11751237_a_at) / RFU ID3 (11757404_x_at) / Fold change /veh ID3 (11757404_x_at) / RFU PLEKHG5 (11737974_s_at) / Fold change /veh PLEKHG5 (11737974_s_at) / RFU LRRC4B (11730491_at) / Fold change /veh LRRC4B (11730491_at) / RFU GIMAP4 (11747438_a_at) / Fold change /veh GIMAP4 (11747438_a_at) / RFU KRT8 (11758183_x_at) / Fold change /veh KRT8 (11758183_x_at) / RFU CNN1 (11734310_a_at) / Fold change /veh CNN1 (11734310_a_at) / RFU VPS37D (11726825_at) / Fold change /veh VPS37D (11726825_at) / RFU C10orf10 (11716522_x_at) / Fold change /veh C10orf10 (11716522_x_at) / RFU KIR2DL2 /// KIR2DL4 /// KIR2DL5A /// KIR2DL5B /// KIR2DS1 /// KIR2DS2 /// KIR2DS3 /// KIR2DS4 /// KIR3DL3 /// KIR3DL3 /// KIR3DS1 (11738374_at) / Fold change /veh KIR2DL2 /// KIR2DL4 /// KIR2DL5A /// KIR2DL5B /// KIR2DS1 /// KIR2DS2 /// KIR2DS3 /// KIR2DS4 /// KIR3DL3 /// KIR3DL3 /// KIR3DS1 (11738374_at) / RFU C1QL1 (11718748_at) / Fold change /veh C1QL1 (11718748_at) / RFU TMPRSS4 (11747572_a_at) / Fold change /veh TMPRSS4 (11747572_a_at) / RFU HAMP (11756126_x_at) / Fold change /veh HAMP (11756126_x_at) / RFU RNFT2 (11725882_a_at) / Fold change /veh RNFT2 (11725882_a_at) / RFU NR4A2 (11747474_a_at) / Fold change /veh NR4A2 (11747474_a_at) / RFU ABCC12 (11746883_a_at) / Fold change /veh ABCC12 (11746883_a_at) / RFU TMEM136 (11760407_x_at) / Fold change /veh TMEM136 (11760407_x_at) / RFU CLDN22 /// WWC2 (11732394_at) / Fold change /veh CLDN22 /// WWC2 (11732394_at) / RFU HLA-DPB1 (11760878_x_at) / Fold change /veh HLA-DPB1 (11760878_x_at) / RFU SPINT1 (11716480_a_at) / Fold change /veh SPINT1 (11716480_a_at) / RFU GAP43 (11754022_s_at) / Fold change /veh GAP43 (11754022_s_at) / RFU A4GNT (11735810_at) / Fold change /veh A4GNT (11735810_at) / RFU PRB3 (11715151_x_at) / Fold change /veh PRB3 (11715151_x_at) / RFU TUBB4B (11761932_at) / Fold change /veh TUBB4B (11761932_at) / RFU CAPN14 (11732068_a_at) / Fold change /veh CAPN14 (11732068_a_at) / RFU TMCC2 (11721928_a_at) / Fold change /veh TMCC2 (11721928_a_at) / RFU IRGQ (11745062_a_at) / Fold change /veh IRGQ (11745062_a_at) / RFU FAM174B (11720279_a_at) / Fold change /veh FAM174B (11720279_a_at) / RFU TMPRSS4 (11748680_a_at) / Fold change /veh TMPRSS4 (11748680_a_at) / RFU FAM212B (11763350_a_at) / Fold change /veh FAM212B (11763350_a_at) / RFU PLEKHG5 (11743358_a_at) / Fold change /veh PLEKHG5 (11743358_a_at) / RFU ZSCAN30 (11745921_a_at) / Fold change /veh ZSCAN30 (11745921_a_at) / RFU CMKLR1 (11741424_a_at) / Fold change /veh CMKLR1 (11741424_a_at) / RFU LOC101060620 /// MAPK8IP1 (11723275_at) / Fold change /veh LOC101060620 /// MAPK8IP1 (11723275_at) / RFU SPTSSB (11747773_x_at) / Fold change /veh SPTSSB (11747773_x_at) / RFU PRSS12 (11739890_at) / Fold change /veh PRSS12 (11739890_at) / RFU BIN1 (11741810_x_at) / Fold change /veh BIN1 (11741810_x_at) / RFU WNT11 (11732464_a_at) / Fold change /veh WNT11 (11732464_a_at) / RFU C10orf10 (11716521_a_at) / Fold change /veh C10orf10 (11716521_a_at) / RFU C5orf56 (11738089_at) / Fold change /veh C5orf56 (11738089_at) / RFU CYB561 (11721691_x_at) / Fold change /veh CYB561 (11721691_x_at) / RFU ANKRD19P (11752326_a_at) / Fold change /veh ANKRD19P (11752326_a_at) / RFU OR2T12 /// OR2T33 /// OR2T8 (11738714_s_at) / Fold change /veh OR2T12 /// OR2T33 /// OR2T8 (11738714_s_at) / RFU VCAN (11748164_a_at) / Fold change /veh VCAN (11748164_a_at) / RFU JSRP1 (11732532_at) / Fold change /veh JSRP1 (11732532_at) / RFU KRTAP10-11 (11738290_x_at) / Fold change /veh KRTAP10-11 (11738290_x_at) / RFU MYO3A (11730013_a_at) / Fold change /veh MYO3A (11730013_a_at) / RFU EBF3 (11725865_a_at) / Fold change /veh EBF3 (11725865_a_at) / RFU CAMK2N1 (11719241_x_at) / Fold change /veh CAMK2N1 (11719241_x_at) / RFU C5orf56 (11738088_a_at) / Fold change /veh C5orf56 (11738088_a_at) / RFU OLFML3 (11715873_a_at) / Fold change /veh OLFML3 (11715873_a_at) / RFU LOC100653217 /// NTM (11731650_a_at) / Fold change /veh LOC100653217 /// NTM (11731650_a_at) / RFU MAPK11 (11762145_a_at) / Fold change /veh MAPK11 (11762145_a_at) / RFU FIZ1 (11724087_x_at) / Fold change /veh FIZ1 (11724087_x_at) / RFU OASL (11726364_x_at) / Fold change /veh OASL (11726364_x_at) / RFU SOX15 (11748057_x_at) / Fold change /veh SOX15 (11748057_x_at) / RFU CD79A (11719716_a_at) / Fold change /veh CD79A (11719716_a_at) / RFU HIST1H1D (11736915_at) / Fold change /veh HIST1H1D (11736915_at) / RFU CASKIN2 (11723855_a_at) / Fold change /veh CASKIN2 (11723855_a_at) / RFU LOC730098 (11760151_x_at) / Fold change /veh LOC730098 (11760151_x_at) / RFU OR4N2 (11742367_at) / Fold change /veh OR4N2 (11742367_at) / RFU PRRT2 (11749266_a_at) / Fold change /veh PRRT2 (11749266_a_at) / RFU SNX32 (11753110_a_at) / Fold change /veh SNX32 (11753110_a_at) / RFU CDHR5 (11726645_a_at) / Fold change /veh CDHR5 (11726645_a_at) / RFU RCAN1 (11760418_a_at) / Fold change /veh RCAN1 (11760418_a_at) / RFU FAM167A (11723789_a_at) / Fold change /veh FAM167A (11723789_a_at) / RFU FAM26E (11764081_at) / Fold change /veh FAM26E (11764081_at) / RFU ISYNA1 (11749810_s_at) / Fold change /veh ISYNA1 (11749810_s_at) / RFU ACY1 (11761880_at) / Fold change /veh ACY1 (11761880_at) / RFU 11764098_at / Fold change /veh 11764098_at / RFU SAMD14 (11745864_x_at) / Fold change /veh SAMD14 (11745864_x_at) / RFU NPB (11741838_a_at) / Fold change /veh NPB (11741838_a_at) / RFU TMPRSS6 (11731388_a_at) / Fold change /veh TMPRSS6 (11731388_a_at) / RFU KRTAP10-2 (11738614_at) / Fold change /veh KRTAP10-2 (11738614_at) / RFU ARHGAP8 /// PRR5-ARHGAP8 (11727945_x_at) / Fold change /veh ARHGAP8 /// PRR5-ARHGAP8 (11727945_x_at) / RFU KRTAP5-7 /// NADSYN1 (11734609_at) / Fold change /veh KRTAP5-7 /// NADSYN1 (11734609_at) / RFU RASL12 (11751679_a_at) / Fold change /veh RASL12 (11751679_a_at) / RFU CDKN2B (11736163_a_at) / Fold change /veh CDKN2B (11736163_a_at) / RFU PRF1 (11729649_at) / Fold change /veh PRF1 (11729649_at) / RFU, ZNF638 /// ZNF638-IT1 / Fold change vs veh, ZNF638 /// ZNF638-IT1 / RFU, PANK3 / Fold change vs veh, PANK3 / RFU, SH3YL1 / Fold change vs veh, SH3YL1 / RFU, ZEB2 / Fold change vs veh, ZEB2 / RFU, NRIP1 / Fold change vs veh, NRIP1 / RFU, PTTG1IP / Fold change vs veh, PTTG1IP / RFU, CAPN2 / Fold change vs veh, CAPN2 / RFU, MED14 / Fold change vs veh, MED14 / RFU, SNORA58 / Fold change vs veh, SNORA58 / RFU, C1orf63 / Fold change vs veh, C1orf63 / RFU, LRRFIP1 / Fold change vs veh, LRRFIP1 / RFU, NDUFAF7 / Fold change vs veh, NDUFAF7 / RFU, SLC12A2 / Fold change vs veh, SLC12A2 / RFU, IBTK / Fold change vs veh, IBTK / RFU, ESF1 / Fold change vs veh, ESF1 / Fold change vs veh, TMEM50B / RFU, TAOK1 / Fold change vs veh, TAOK1 / RFU, ACBD3 / Fold change vs veh, ACBD3 / RFU, TMA16 / Fold change vs veh, TMA16 / RFU, RWDD3 / Fold change vs veh, RWDD3 / RFU, BCAT1 / Fold change vs veh, BCAT1 / RFU, EDEM3 / Fold change vs veh, EDEM3 / RFU, TMEM33 / Fold change vs veh, TMEM33 / RFU, WDR75 / Fold change vs veh, WDR75 / RFU, AHCTF1 / Fold change vs veh, AHCTF1 / RFU, TFRC / Fold change vs veh, TFRC / RFU, ZDHHC17 / Fold change vs veh, ZDHHC17 / RFU, NOM1 / Fold change vs veh, NOM1 / RFU, ARL8B / Fold change vs veh, ARL8B / RFU, ZBTB11 / Fold change vs veh, ZBTB11 / RFU, TAMM41 / Fold change vs veh, TAMM41 / RFU, KIAA1704 /// LOC100996395 / Fold change vs veh, KIAA1704 /// LOC100996395 / RFU, ING1 / Fold change vs veh, ING1 / RFU, TRMT61B / Fold change vs veh, TRMT61B / RFU, FUBP3 / Fold change vs veh, FUBP3 / RFU, TP53 / Fold change vs veh, TP53 / RFU, TNKS2 / Fold change vs veh, TNKS2 / RFU, ZFP14 / Fold change vs veh, ZFP14 / RFU, ACTR2 / Fold change vs veh, ACTR2 / RFU, PPP3R1 / Fold change vs veh, PPP3R1 / RFU, PIK3R1 / Fold change vs veh, PIK3R1 / RFU, HNRNPA1 / Fold change vs veh, HNRNPA1 / RFU, RNF170 / Fold change vs veh, RNF170 / RFU, ZNF28 / Fold change vs veh, ZNF28 / RFU, RNGTT / Fold change vs veh, RNGTT / RFU, OGT / Fold change vs veh, OGT / RFU, BRD1 / Fold change vs veh, BRD1 / RFU, MARS / Fold change vs veh, MARS / RFU, ZNF655 / Fold change vs veh, ZNF655 / RFU, FAHD1 / Fold change vs veh, FAHD1 / RFU, BDP1 / Fold change vs veh, BDP1 / RFU, LRRCC1 / Fold change vs veh, LRRCC1 / RFU, ARID1A / Fold change vs veh, ARID1A / RFU, ZNF146 / Fold change vs veh, ZNF146 / RFU, ZNF330 / Fold change vs veh, ZNF330 / RFU, GPN3 / Fold change vs veh, GPN3 / RFU, C9orf123 / Fold change vs veh, C9orf123 / RFU, N4BP2L2 / Fold change vs veh, N4BP2L2 / RFU, ARFIP1 / Fold change vs veh, ARFIP1 / RFU, FAM179B / Fold change vs veh, FAM179B / RFU, BCL10 / Fold change vs veh, BCL10 / RFU, UHRF1BP1L / Fold change vs veh, UHRF1BP1L / RFU, BET1 / Fold change vs veh, BET1 / RFU, CNOT2 / Fold change vs veh, CNOT2 / RFU, ZNF268 / Fold change vs veh, ZNF268 / Fold change vs veh, ZNF507 / RFU, DGCR2 / Fold change vs veh, DGCR2 / RFU, WDSUB1 / Fold change vs veh, WDSUB1 / Fold change vs veh, HSP90B1 /// MIR3652 / RFU, ADSS / Fold change vs veh, ADSS / RFU, GK / Fold change vs veh, GK / RFU, ZNF148 / Fold change vs veh, ZNF148 / RFU, TAF9 / Fold change vs veh, TAF9 / RFU, SLC1A5 / Fold change vs veh, SLC1A5 / RFU, SLMO2 / Fold change vs veh, SLMO2 / RFU, ABCC4 / Fold change vs veh, ABCC4 / RFU, LOC101060439 /// RAP1B / Fold change vs veh, LOC101060439 /// RAP1B / RFU, RFX7 / Fold change vs veh, RFX7 / RFU, GTPBP10 / Fold change vs veh, GTPBP10 / RFU, CNEP1R1 / Fold change vs veh, CNEP1R1 / RFU, BIVM-ERCC5 /// ERCC5 / Fold change vs veh, BIVM-ERCC5 /// ERCC5 / RFU, ILF3 / Fold change vs veh, ILF3 / RFU 11762660_at / Fold change /veh 11762660_at / RFU VCAN (11757783_s_at) / Fold change /veh VCAN (11757783_s_at) / RFU DDX43 (11728927_at) / Fold change /veh DDX43 (11728927_at) / RFU KRT8 (11758188_x_at) / Fold change /veh KRT8 (11758188_x_at) / RFU NKD1 (11759106_at) / Fold change /veh NKD1 (11759106_at) / RFU SRD5A1 (11742802_a_at) / Fold change /veh SRD5A1 (11742802_a_at) / RFU TPSAB1 /// TPSB2 (11721975_s_at) / Fold change /veh TPSAB1 /// TPSB2 (11721975_s_at) / RFU GSTM3 (11746129_a_at) / Fold change /veh GSTM3 (11746129_a_at) / RFU IL23R (11737362_x_at) / Fold change /veh IL23R (11737362_x_at) / RFU TMEM51 (11727254_a_at) / Fold change /veh TMEM51 (11727254_a_at) / RFU PIWIL2 (11732686_x_at) / Fold change /veh PIWIL2 (11732686_x_at) / RFU ORM1 (11744905_x_at) / Fold change /veh ORM1 (11744905_x_at) / RFU CCDC152 (11743942_at) / Fold change /veh CCDC152 (11743942_at) / RFU ECM1 (11717891_a_at) / Fold change /veh ECM1 (11717891_a_at) / RFU IL23R (11748794_a_at) / Fold change /veh IL23R (11748794_a_at) / RFU TNFAIP8L3 (11732012_x_at) / Fold change /veh TNFAIP8L3 (11732012_x_at) / RFU MBOAT4 (11741988_at) / Fold change /veh MBOAT4 (11741988_at) / RFU 11764193_at / Fold change /veh 11764193_at / RFU TMEM53 (11763286_at) / Fold change /veh TMEM53 (11763286_at) / RFU MAGEB2 (11727129_at) / Fold change /veh MAGEB2 (11727129_at) / RFU TMEM200A (11744735_a_at) / Fold change /veh TMEM200A (11744735_a_at) / RFU CCDC152 (11751479_a_at) / Fold change /veh CCDC152 (11751479_a_at) / RFU FAM211A (11726209_a_at) / Fold change /veh FAM211A (11726209_a_at) / RFU RGS16 (11746705_a_at) / Fold change /veh RGS16 (11746705_a_at) / RFU VCAN (11755009_s_at) / Fold change /veh VCAN (11755009_s_at) / RFU RHOB (11743442_s_at) / Fold change /veh RHOB (11743442_s_at) / RFU RGS16 (11720943_a_at) / Fold change /veh RGS16 (11720943_a_at) / RFU RGS16 (11720944_at) / Fold change /veh RGS16 (11720944_at) / RFU, VPS4B / Fold change vs veh, VPS4B / RFU, CREB1 / Fold change vs veh, CREB1 / RFU, DNAJC13 / Fold change vs veh, DNAJC13 / RFU, GNAQ / Fold change vs veh, GNAQ / RFU, CDK5R1 / Fold change vs veh, CDK5R1 / RFU, ZRANB3 / Fold change vs veh, ZRANB3 / RFU, CUL4A / Fold change vs veh, CUL4A / RFU, CCNY / Fold change vs veh, CCNY / RFU, UFL1 / Fold change vs veh, UFL1 / RFU, COG3 / Fold change vs veh, COG3 / RFU, DIAPH2 / Fold change vs veh, DIAPH2 / RFU, SKA2 / Fold change vs veh, SKA2 / RFU, AFF3 / Fold change vs veh, AFF3 / RFU, LMF1 / Fold change vs veh, LMF1 / RFU, IPO11 / Fold change vs veh, IPO11 / RFU, DFFB / Fold change vs veh, DFFB / RFU, FOXP1 / Fold change vs veh, FOXP1 / RFU, CARD8 / Fold change vs veh, CARD8 / RFU, STRN3 / Fold change vs veh, STRN3 / RFU, ADK / Fold change vs veh, ADK / RFU, RASSF2 / Fold change vs veh, RASSF2 / RFU, WIPF1 / Fold change vs veh, WIPF1 / RFU, LARP1B / Fold change vs veh, LARP1B / RFU, RASA1 / Fold change vs veh, RASA1 / RFU, RB1 / Fold change vs veh, RB1 / RFU, PPFIA1 / Fold change vs veh, PPFIA1 / RFU, MAT2A / Fold change vs veh, MAT2A / RFU, CCT5 / Fold change vs veh, CCT5 / RFU, WDR92 / Fold change vs veh, WDR92 / RFU, CUX1 / Fold change vs veh, CUX1 / RFU, TTC7A / Fold change vs veh, TTC7A / RFU, TMEM135 / Fold change vs veh, TMEM135 / RFU, DEPTOR / Fold change vs veh, DEPTOR / RFU, CPM / Fold change vs veh, CPM / RFU, DNAJB6 / Fold change vs veh, DNAJB6 / RFU, CACNA2D3 / Fold change vs veh, CACNA2D3 / RFU, DTX4 / Fold change vs veh, DTX4 / RFU, TFCP2 / Fold change vs veh, TFCP2 / RFU, GMCL1 /// GMCL1P1 / Fold change vs veh, GMCL1 /// GMCL1P1 / RFU, AEBP2 / Fold change vs veh, AEBP2 / RFU, SNHG1 /// SNORD22 /// SNORD25 /// SNORD26 /// SNORD27 /// SNORD28 /// SNORD29 /// SNORD31 / Fold change vs veh, SNHG1 /// SNORD22 /// SNORD25 /// SNORD26 /// SNORD27 /// SNORD28 /// SNORD29 /// SNORD31 / Fold change (Aza/veh), C12orf56 (ProbeSet 11735607_a_at) / Fold change (ACY-1035/veh), C12orf56 (ProbeSet 11735607_a_at) / Fold change (Aza/veh), FGFR1OP (ProbeSet 11751329_s_at) / Fold change (ACY-1035/veh), FGFR1OP (ProbeSet 11751329_s_at) / Fold change (Aza/veh), VPS36 (ProbeSet 11739960_a_at) / Fold change (ACY-1035/veh), VPS36 (ProbeSet 11739960_a_at) / RFU SYPL1 (11715823_x_at) / Fold change /veh SYPL1 (11715823_x_at) / RFU IGFBP7 (11715501_s_at) / Fold change /veh IGFBP7 (11715501_s_at) / RFU REEP3 (11722064_at) / Fold change /veh REEP3 (11722064_at) / RFU IGLL1 (11728026_x_at) / Fold change /veh IGLL1 (11728026_x_at): dose or concentration left out as unconfirmed. Conditions: MV-4-11 cells, 48 hours.

For the compound `Nc1ncn([C@@H]2O[C@H](CO)[C@@H](O)[C@H]2O)c(=O)n1` [azacitidine], the “RFU ORM1 (11744905_x_at)” value is 10.48 RFU.
